Measured values as given in publication PMC7529893, “Structural basis for substrate recognition and chemical inhibition of oncogenic MAGE ubiquitin ligases” (Nature Communications, 2020).
pIC50: −log10 of the molar value. ≈ marks a conversion by molar mass, not a printed value. Peptide text beside a SMILES is read from it.

How the values were obtained:
[1] = Solubility assay (μSOL Evolution); assay type: physicochemical; settings: 18 h at RT; for solubility at 18 h: citrate phosphate-buffered saline (isotonic) with 1% DMSO
Procedure: Solubility assays were carried out on a Biomek FX lab automation workstation (Beckman Coulter, Inc., Fullerton, CA) using μSOL Evolution software (pION Inc., Woburn, MA). The detailed method is described as follows. 10 µl of 10 mM compound stock (in DMSO) was added to 190 μl 1-propanol to make a reference stock plate. In total, 5 µl from this reference stock plate were mixed with 70 µl 1-propanol and 75 µl citrate phosphate-buffered saline (PBS; isotonic) to make the reference plate, and the UV spectrum (250–500 nm) of the reference plate was read. In total, 6 µl of 10 mM test compound stock was added to 594 µl buffer in a 96-well storage plate and mixed. The storage plate was sealed and incubated at RT for 18 h. The suspension was then filtered through a 96-well filter plate (pION Inc., Woburn, MA). In all, 75 µl of filtrate was mixed with 75 µl 1-propanol to make the sample plate, and the UV spectrum of the sample plate was read. Calculations were carried out with μSOL Evolution software based on the area under the curve (AUC) of the UV spectrum of the sample and reference plates. All compounds were tested in triplicate.

[2] = target: T1, MAGE-A11:PCF11 interaction (GST-MAGE-A11 MHD and FAM-PCF11_4) (Homo sapiens, UniProt P43364); experiment: TR-FRET dose response test of compounds for disruption of MAGE-A11:PCF11 binding; settings: Supplementary Data 4; read-out: TR-FRET, IC50
T1 construct: GST-MAGE-A11 MHD (human MAGE-A11 MHD amino acid 218-429); made in house; host or cells: E. coli BL21(DE3)
T1 sequence (P43364 218-429): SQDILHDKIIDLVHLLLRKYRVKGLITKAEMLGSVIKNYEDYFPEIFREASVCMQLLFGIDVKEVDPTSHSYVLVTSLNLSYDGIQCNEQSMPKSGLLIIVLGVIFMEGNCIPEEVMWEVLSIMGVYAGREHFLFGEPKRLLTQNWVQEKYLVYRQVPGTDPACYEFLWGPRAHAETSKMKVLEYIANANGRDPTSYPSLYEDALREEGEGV
Procedure, shortened: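 Competition of compounds against binding of FAM-PCF11_4 peptide to GST-MAGE-A11 MHD, detected with Tb-anti-GST, in 50 mM Tris pH 7.5, 20 mM MgCl2, 0.1 mg/ml BSA, 1 mM DTT. 90 min at ~25 °C; 520/490 nm emission ratio (340 nm excitation) fitted for IC50.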

Caco-2 cells = experiment: High throughput Caco-2 permeability; assay type: in vitro ADME; settings: 10 µmol/l, 2 h; for Papp A→B: apical to basolateral; for Papp B→A: basolateral to apical
Procedure: (§1) High throughput Caco-2 permeability was performed in the TranswellR 0.4 µm polycarbonate membrane 96-well system with modified methods. Caco-2 cells were maintained at 37 °C in a humidified incubator with an atmosphere of 5% CO2. The cells were cultured in 75 cm^2 flasks with Dulbecco’s Modified Eagle’s Medium (DMEM) containing 10% (v/v) FBS, 1% (v/v) non-essential amino acids (NEAA), 100 units/ml of penicillin, and 100 µg/ml of streptomycin. The Caco-2 cells were seeded onto inserts at a density of 2 × 10^4 cells/insert separately. The medium in the wells was exchanged each other day, and the trans epithelial electrical resistance (TEER) value was measured using an epithelial voltohm meter (Millipore, Billerica, Massachusetts). […] For transport experiments, each cultured monolayer on the 96-well plate was washed twice with a transport buffer (HBSS containing 25 mM HEPES, pH 7.4). The permeability assay was initiated by the addition of each compound solution (10 µmol/l) into inserts (apical side, A) or receivers (basolateral side, B). The Caco-2 cell monolayers were incubated for 2 h at 37 °C. Fractions were collected from receivers (if apical to basal permeability) or inserts (if basal to apical permeability), and concentrations were assessed by UPLC/MS (Waters; Milford, MA). All compounds were tested in triplicates. The A → B (or B → A) apparent permeability coefficients (Papp) of each compound were calculated using the equation, Papp = dQ/dt × 1/AC0, where dQ/dt equals the flux of a drug across the monolayer, A equals the total insert well surface area, and C0 is the initial concentration of substrate in the donor compartment. The efflux ratio was determined by dividing the Papp in the B-A direction by the Papp in the A-B direction.

GST-MAGE-A11 MHD = target: T2, GST-MAGE-A11 MHD (Homo sapiens, UniProt P43364); experiment: TR-FRET competition assay of PCF11 peptides against GST-MAGE-A11 MHD / FAM-PCF11_4; settings: Fig. 1c, panel of eight PCF11 peptides; read-out: IC50, binding of PCF11 peptide to GST-MAGE-A11 by TR-FRET
T2 construct: GST-MAGE-A11 MHD (human MAGE-A11 MHD amino acid 218-429); made in house; host or cells: E. coli BL21(DE3)
T2 sequence (P43364 218-429): T1 sequence (P43364 218-429)
Procedure: The TR-FRET assay buffer with a formula of 50 mM Tris pH 7.5, 20 mM MgCl2, 0.1 mg/ml BSA and 1 mM DTT was freshly prepared before each experiment. All TR-FRET assays were performed in black 384-well plates with 20 µl/well assay volume in the TR-FRET assay buffer at room temperature (~25 °C). All peptides or compounds were solubilized in DMSO. To test the competitive activity of peptides or compounds against the interaction between GST-MAGE-A11 MHD and FAM-PCF11_4 peptide, 10 µl/well peptide or compound at specified concentration was dispensed into a black 384-well low volume plate, followed by 5 µl/well FAM-PCF11_4 (800 nM), 5 µl/well Tb-anti-GST (20 nM), and GST-MAGE-A11 MHD (20 nM). The assay components in each well was then mixed by shaking the plate on an IKA MTS 2/4 digital microtiter plate shaker (IKA Works; Wilmington, NC, USA) for 1 min. The plate was further centrifuged in an Eppendorf 5810 centrifuge with an A-4-62 swing-bucket rotor (Eppendorf AG, Hamburg, Germany) at 201 g for 30 s. The plate was then incubated for 90 min with a lid to avoid light exposure to the assay components. After incubation, the fluorescent emission signals at 520 nm and 490 nm channels of individual wells were measured with a PHERAstar FS plate reader (BMG Labtech; Durham, NC, USA) by using a 340 nm excitation filter, 100 µs delay time, and 200 µs integration time. The TR-FRET fluorescence emission ratio (TR-FRET signal) for each well was presented as 10,000 × 520 nm/490 nm, which was used directly for curve fitting, or further converted to %Inhibition based on the respective positive and negative controls. The graphic software GraphPad Prism 4.81 (GraphPad Software; La Jolla, CA, USA) was used to generate curves and derive IC50 values of tested peptides or compounds, if applicable.
TR-FRET inhibitory activity characterization of a panel of PCF11 peptides against the interaction between GST-MAGE-A11 MHD and FAM-PCF11_4 was performed as follows. In a 20-µl/well assay volume, dilutions of PCF11_1 to PCF11_8 peptides (concentrations ranged from 3.1 nM to 100 µM for peptides PCF11_4, PCF11_5, PCF11_6 and PCF11_8 in a 1-to-2 dilution pattern for 16 concentration levels, and ranged from 48.9 nM to 100 µM for peptides of PCF11_1, PCF11_2, PCF11_3, and PCF11_7 in a 1-to-2 dilution pattern for 12 concentration levels), 200 nM FAM-PCF11_4, 5 nM Tb-anti-GST and 5 nM GST-MAGE-A11 were mixed together and incubated for 90 min before the TR-FRET signal for each well was measured. The final DMSO concentration was 1.1% (v/v). […] The signal of each peptide-treated well (Signalpeptide) was normalized to the positive and negative controls to derive %inhibition of the peptide at a specific concentration with Eq. (1). Where applicable, the %Inhibition data were fit into a Sigmoidal dose response equation to derive IC50 values.1 %Inhibition=100%−100%×(Signalpeptide−SignalDMSOwithoutGST-MAGEA11)/SignalDMSO−SignalDMSOwithoutGST-MAGEA11.

[3] = High throughput Caco-2 permeability; assay type: in vitro ADME; settings: human, Caco-2, pH 7.4, 10 µmol/l, 2 h; for Papp A→B at 2 h, 10 µmol/l: apical to basolateral; for Papp B→A at 2 h, 10 µmol/l: basolateral to apical
Procedure: as §1

SMILES	Solubility [1] [µM]	pIC50 [2]	Papp A→B (Caco-2 cells) [×10⁻⁶ cm/s]	Papp B→A (Caco-2 cells) [×10⁻⁶ cm/s]	pIC50 (GST-MAGE-A11 MHD)	solubility at 18 h [1] [µM]	Papp A→B at 2 h, 10 µmol/l [3] [×10⁻⁶ cm/s]	Papp B→A at 2 h, 10 µmol/l [3] [×10⁻⁶ cm/s]
FC(F)(F)c1ccc2c(NCCCNCc3ccco3)ccnc2c1 [SJ000361113-02]	119.10 (≈ 41.6 µg/mL)	< 4.15	50.2	40.1	–	–	–	–
CC(C)(C)c1ccc(-c2ccc3c(NCCCNCc4ccc5[nH]ccc5c4)ccnc3c2)cc1 [SJ001008068-01]	0.67 (≈ 0.31 µg/mL)	6.89	0.368	1.54	–	–	–	–
CC[C@H](C)[C@H](NC(=O)[C@H](CCC(N)=O)NC(=O)[C@H](Cc1c[nH]cn1)NC(=O)[C@@H](N)C(C)C)C(=O)N[C@@H](CCCNC(=N)N)C(=O)N[C@@H](CCC(N)=O)C(=O)N[C@@H](CC(C)C)C(=O)N[C@@H](Cc1ccccc1)C(=O)N[C@@H](CCC(N)=O)C(=O)N[C@@H](Cc1ccc(O)cc1)C(=O)N[C@@H](CCC(N)=O)C(=O)N[C@@H](CCC(=O)O)C(=O)NCC(=O)N[C@H](C(=O)N[C@@H](CCCNC(=N)N)C(=O)N[C@@H](CCC(=O)O)C(=O)N[C@@H](CCC(=O)O)C(=O)N[C@@H](CCC(N)=O)C(=O)N[C@@H](CCCNC(=N)N)C(=O)N[C@@H](CO)C(=O)O)C(C)C [PCF11_8] (H-VHQIRQLFQYQEGVREEQRS-OH; N-terminus assumed)	–	–	–	–	< 4.30	–	–	–
CC[C@H](C)[C@H](NC(=O)[C@H](CCC(N)=O)NC(=O)[C@H](Cc1c[nH]cn1)NC(=O)[C@@H](N)C(C)C)C(=O)N[C@@H](CCCNC(=N)N)C(=O)N[C@@H](CCC(N)=O)C(=O)N[C@@H](CC(C)C)C(=O)N[C@@H](Cc1ccccc1)C(=O)N[C@@H](CCC(N)=O)C(=O)N[C@@H](Cc1ccc(O)cc1)C(=O)N[C@@H](CCC(N)=O)C(=O)N[C@@H](CCC(=O)O)C(=O)NCC(=O)N[C@H](C(=O)N[C@@H](CCCNC(=N)N)C(=O)O)C(C)C [PCF11_7] (H-VHQIRQLFQYQEGVR-OH; N-terminus assumed)	–	–	–	–	< 4.30	–	–	–
CC(C)C[C@H](NC(=O)[C@H](CC(C)C)NC(=O)[C@H](CCC(=O)O)NC(=O)[C@H](CCCNC(=N)N)NC(=O)[C@H](CCCCN)NC(=O)[C@H](CO)NC(=O)[C@H](C)NC(=O)[C@H](CC(C)C)NC(=O)[C@@H](NC(=O)[C@H](CC(C)C)NC(=O)[C@H](CCC(=O)O)NC(=O)[C@H](CCCCN)NC(=O)[C@@H]1CCCN1)[C@@H](C)O)C(=O)N[C@@H](CCC(N)=O)C(=O)N[C@@H](CCCCN)C(=O)O [PCF11_1] (H-PKELTLASKRELLQK-OH; N-terminus assumed)	–	–	–	–	< 4.30	–	–	–
CC[C@H](C)[C@H](NC(=O)[C@H](CCC(=O)O)NC(=O)CNC(=O)[C@H](CO)NC(=O)[C@H](C)NC(=O)[C@H](CC(C)C)NC(=O)[C@H](CCCNC(=N)N)NC(=O)[C@H](CCC(=O)O)NC(=O)[C@H](CO)NC(=O)[C@@H](NC(=O)[C@H](CCCCN)NC(=O)[C@H](CCC(N)=O)NC(=O)[C@H](CC(C)C)NC(=O)[C@@H](N)CC(C)C)[C@@H](C)O)C(=O)N[C@H](C(=O)O)[C@@H](C)O [PCF11_2] (H-LLQKTSERLASGEIT-OH; N-terminus assumed)	–	–	–	–	< 4.30	–	–	–
Clc1ccc2c(NCCCNCc3ccc4[nH]ccc4c3)ccnc2c1 [SJ000520909-03]	59.80 (≈ 21.8 µg/mL)	6.62	19.6	21.3	–	–	–	–
FC(F)(F)c1cc(-c2ccc3c(NCCCNCc4ccc5[nH]ccc5c4)ccnc3c2)cc(C(F)(F)F)c1 [SJ001008069-01]	0.12 (≈ 0.0651 µg/mL)	6.70	0.498	0.229	–	–	–	–
FC(F)(F)c1ccc2c(NCCCNCc3ccc4c(c3)OCO4)ccnc2c1 [SJ000361106-02]	128.74 (≈ 51.9 µg/mL)	–	47	40	–	–	–	–
C=CC(=O)N(CCCNc1ccnc2ccccc12)Cc1ccc2[nH]ccc2c1 [SJ001009807-01]	34.77 (≈ 13.4 µg/mL)	5.46	2.73	18.9	–	–	–	–
Brc1ccc2c(NCCCNCc3ccc4[nH]ccc4c3)ccnc2c1 [SJ001008065-01]	57.14 (≈ 23.4 µg/mL)	6.21	18.3	19.3	–	–	–	–
FC(F)(F)c1cc(-c2ccc3c(NCCCNCc4ccco4)ccnc3c2)cc(C(F)(F)F)c1 [SJ000311270-01, FC(F)(F)c1cc(cc(c1)C(F)(F)F)c2ccc3c(NCCCNCc4occc4)ccnc3c2]	–	6.24	–	–	–	61.1 (≈ 30.1 µg/mL)	0.326	0.079
CC(C)(C)c1ccc(-c2ccc3c(NCCCNCc4ccco4)ccnc3c2)cc1 [SJ000311286-01, CC(C)(C)c1ccc(cc1)c2ccc3c(NCCCNCc4occc4)ccnc3c2]	–	5.94	–	–	–	56.2 (≈ 23.2 µg/mL)	0.578	0.12
